Tests used:
[1] = tested on: Mucolipidosis Type II (MLII) patient fibroblasts; assay: Lysosomal volume via LysoTracker, MLII fibroblasts; type: cell-based, human; conditions: 1 mM, 6 days
[2] = tested on: GM1 Gangliosidosis patient; assay: Case study, GM1 Gangliosidosis patient; type: in vivo, human; conditions: after one month
Description: The patient in this case study was a person who was genetically diagnosed with GM1 Gangliosidosis and who was not able to stand or walk by themself, was very limited in daily activities (eating, washing, dressing themself was not possible), and had ocular movement disorder, anarthria, and distinct problems in cognitive function and concentration (neurological examination was not possible).
The patient was started on therapy with acetyl-leucine at a dose of 1.5 g per day for the first week, followed by a dose of 3 g per day for the second week onwards.

[3] = tested on: Hexb−/− mouse (Sandhoff disease model); assay: Lifespan of Sandhoff mouse; type: in vivo
Procedure: This study made use of a mouse model of Sandhoff disease, the Hexb^−/− mouse, as descrbed in Jeyakumar et al. (Jeyakumar, M. et al. (1999) Proc. Natl. Acad. Sci. USA 96: 6388-6393).
In FIG. 7A, acetyl-leucine-treated mice were treated with 0.1 g/kg acetyl-leucine from 3 weeks of age. The asterisks (*) indicates a p-value of <0.05 vs untreated Sandhoff mice. Data is average of n=6 mice per group. Without treatment, the median survival time of Sandhoff mice was 112 days. Treatment with acetyl-leucine (0.1 g/kg body weight since 3 weeks of age) increased the median lifespan to 120 days.

MSA-C patients = assay: Case studies, multisystemic atrophy cerebellar type (MSA-C) patients; type: in vivo, human
Npc1−/− and Npc1+/+ mice = assay: Motor function analysis (Open Field Activity Monitor), NPC mouse study; type: in vivo; conditions: 0.1 g/kg from weaning, nine weeks of age
Procedure: Separate groups of Npc1^−/− and Npc1^+/+ mice were left untreated, as controls. Motor function analysis was performed on mice at eight and nine weeks of age using an Open Field Activity Monitor according to manufacturer's instructions (Linton Instruments, Amlogger Software). Each mouse was placed in a plastic cage with bedding and analysed for five minutes. Rears were counted manually. Motor function parameters measured were: • 1. Centre Rearing: mice rearing on hind legs unsupported; • 2. Rearing: mice rearing on hind legs with and without the support of cage walls; • 3. Activity: regular movement of the animal including walks; • 4. Front to Back (FR) count: movement of the animal from front to back of the cage; • 5. Active Time: duration (s/min) of activeness regardless of movement; • 6. Mobile Time: duration (s/min) of mobility; • 7. Rearing Time: duration of any rearing. Results Coat Condition

[4] = MSA-C Patient 3, after 20 days of re-suspending treatment
[5] = MSA-C Patient 3, after 27 days of treatment
[6] = MSA-C Patient 3, shortly after commencing treatment

In the case of `CC(=O)NC(CC(C)C)C(=O)O` (racemic) [acetyl-DL-leucine], the “LysoTracker fluorescence relative to untreated disease fibroblasts” value [1] is reported as “statistically significant reduction in LysoTracker fluorescence”, the SARA ([2]; 3 g per day, baseline 35/40) is reported as 35/40 and the Clinical observation [2] is reported as “stable general condition, increased gait (more fluent), and stable stance in natural position”. For the same molecule, the mRDS ([2]; baseline 15) was 16, the EQ-5D-5L visual scale ([2]; baseline 50) was 60 and the Median lifespan ([3]; Sandhoff mice, 0.1 g/kg body weight since 3 weeks of age, untreated 112 days) was 120 days. The Lifespan ([3]; Sandhoff mouse, 0.1 g/kg from 3 weeks of age, p<0.05 vs untreated) was “statistically significant increase in the lifespan”, the Speech (MSA-C patients; MSA-C Patient 1, 5 g per day, after one week) was “significant improvement in speech” and the Falls (MSA-C patients; MSA-C Patient 2, after 3 weeks, before approximately 10 falls a month) was “falls completely stopped”. For the same molecule, the “Symptoms after stopping medication” value (MSA-C patients; MSA-C Patient 2, one week after stopping) was “deterioration of gait and dizziness”, the “Symptoms after stopping medication again” value (MSA-C patients; MSA-C Patient 2, two days after stopping, following a further 40 days of treatment) was “progressive deterioration of gait and dizziness” and the Gait (MSA-C patients; MSA-C Patient 2, up to 5 gram per day, after 3 weeks) was “significant improvement of gait”. The speed (MSA-C patients; MSA-C Patient 3, 5 gram per day, after 27 days of treatment) was 106 cm/s, the “Coefficient of variation (temporal)” value (MSA-C patients; [4]) was 2.5 and the Double stance (MSA-C patients; [4]) was 27.1%. The “Functional Gait Assessment” value (MSA-C patients; [4]) was 22/30, the Max. speed (MSA-C patients; [4]) was 197 cm/s and the Step cycle length (MSA-C patients; [4]) was 115 cm. For the same molecule, the Track width (MSA-C patients; [4]) was 17.5 cm, the cadence (MSA-C patients; [4]) was 112 steps/minute and the speed (MSA-C patients; [4]) was 106 cm/s. For the same molecule, the “Coefficient of variation (temporal)” value (MSA-C patients; [5]) was 3.1, the Double stance (MSA-C patients; [5]) was 27.3% and the “Functional Gait Assessment” value (MSA-C patients; [5]) was 20/30. It also gave a Max. speed (MSA-C patients; [5]) of 208 cm/s, a Step cycle length (MSA-C patients; [5]) of 113 cm and a Track width (MSA-C patients; [5]) of 14.6 cm. For the same molecule, the cadence (MSA-C patients; [5]) was 113 steps/minute, the “Gait analysis (summary)” value (MSA-C patients; MSA-C Patient 3, after one month of treatment) was “improvement of gait speed, and reductions of track width and gait fluctuations” and the “Symptoms after stopping medication” value (MSA-C patients; MSA-C Patient 3, approximately two to three weeks after stopping) was “progressive deterioration of gait and dizziness”. For the same molecule, the “Coefficient of variation (temporal)” value (MSA-C patients; [6]) was 3.3, the Double stance (MSA-C patients; [6]) was 32.5% and the “Functional Gait Assessment” value (MSA-C patients; [6]) was 21/30. It also gave a Max. speed (MSA-C patients; [6]) of 183 cm/s, a Step cycle length (MSA-C patients; [6]) of 87 cm and a Track width (MSA-C patients; [6]) of 16.8 cm. The cadence (MSA-C patients; [6]) was 101 steps/minute, the speed (MSA-C patients; [6]) was 72 cm/s and the “Motor function vs untreated littermates” value (Npc1−/− and Npc1+/+ mice) was “significantly improved motor function”.

Source: patent US11793782B2, “Therapeutic agents for neurodegenerative diseases” (priority 2017, dated 2023)
